Here are results for one compound from publication PMC5899833, “Population pharmacokinetics/pharmacodynamics of micafungin against Candida species in obese, critically ill, and morbidly obese critically ill patients” (Critical Care, 2018).

The nature of the series: Population pharmacokinetic model of total plasma micafungin in patients. The format is in vivo, human. Particulars: 31 patients; for clearance: human. As to the method: A pharmacokinetic study was carried out in patients under micafungin empirical or directed treatment for invasive candidiasis. The population consisted of 11 morbidly obese critically ill adult patients (from the Hospital Universitario La Paz, Madrid, Spain), 10 nonobese critically ill patients, and 10 obese noncritically ill patients (from the Hospital del Mar, Barcelona, Spain). Patients admitted to ICUs were those considered to be critically ill. The study protocol was approved by the Ethics Committee of the Hospital La Paz (Madrid, Spain) and the Hospital del Mar (Barcelona, Spain). Written informed consent was obtained from patients (or relatives if the patient was unable to provide due to their critical situation) before blood sampling.
Demographic and clinical data prior to initiation of antifungal treatment were collected. Severity (Simplified Acute Physiology Score (SAPS) II), Sequential Organ Failure Assessment (SOFA) score, and risk for invasive candidiasis (Candida score) (except for patients with microbiologically documented infections) were calculated. Patients received dosage regimens of once-daily 100 mg or 150 mg micafungin (Astellas Pharma S.A., Spain) diluted in 100 ml isotonic saline solution that was intravenously infused over 60 min at the discretion of the treating physician (following the prescribing information and hospital treatment guidelines). On day 3, blood samples were collected at baseline (predose) and after 1, 3, 5, 8, 18, and 24 h. Additional blood samples at day 0 and day 7 were collected when feasible.
Total micafungin concentrations in plasma were measured by a validated ultra-high-performance liquid chromatography (UHPLC)-tandem mass spectrometry (MS/MS) method, from 0.2 to 30 μg/ml, on a Shimadzu Nexera 2 UHPLC system coupled to a Shimadzu 8030+ triple quadruple mass spectrometer (Shimadzu, Kyoto, Japan). Clinical samples were assayed alongside plasma calibrators and quality controls and met batch acceptance criteria.
To describe total micafungin concentrations, one- and two-compartment models were developed with the nonparametric adaptive grid algorithm within the freely available Pmetrics software package for R (Los Angeles, CA, USA). Elimination from the central compartment, and intercompartmental distribution into the peripheral compartment (two-compartment model), were modeled as first-order processes. The discrimination between different models resulted from the comparison of the −2 log-likelihood (−2LL). A p value of < 0.05 was considered statistically significant.
Age, gender, body weight, body mass index (BMI), Acute Physiology and Chronic Health Evaluation (APACHE) II, serum creatinine concentration, measured creatinine clearance, Cockroft-Gault estimated creatinine clearance, and serum albumin concentration were evaluated as covariates. Covariate selection was performed using a stepwise linear regression from R on all covariates and Bayesian posterior parameters. Potential covariates were separately entered into the model and statistically tested by use of the –2LL values.
Goodness-of-fit was assessed by linear regression, with an observed-predicted plot, coefficients of determination, and LL values. Predictive performance evaluation was based on mean error of prediction (bias) and mean bias-adjusted squared error of prediction (imprecision) of the population and individual prediction models. The internal validity of the population pharmacokinetic model was assessed by the bootstrap resampling method (n = 1000) and normalized prediction distribution errors (NPDE). Using a visual predictive check method, parameters obtained from the bootstrap method were plotted with the observed concentrations. NPDE plots were checked for normal distribution characteristics and trends in data errors. […]

[1] abbreviates: final two-compartment covariate population PK model, 100 or 150 mg once daily iv.
Where [2] appears, read: final two-compartment covariate population PK model, 100 or 150 mg once daily iv, SD.

Read-outs that look alike come from different tables or passages of the source. Starred links: 1 amine or outer side, 2 acyl side, 3 side chain; linkers in the order of their positions; H or OH if unused. Positions of bridges follow the written chain, without caps; N, C: chain ends. Non-standard residues stand in square brackets, D forms with d. Residues, ends and D or L forms follow the SMILES beside them. *: point of attachment. hTyr(3S-OH,4S-OH,3'-OSO3H) = N[C@H](C(=O)O)[C@H](O)[C@@H](O)c1ccc(O)c(OS(=O)(=O)O)c1; Orn(4R-OH,5R-OH) = O=C([C@H](C[C@@H](O)[C@@H](O)N[*:3])N[*:1])[*:2]; Pro(3S-OH,4S-Me) = C[C@H]1CN[C@H](C(=O)O)[C@H]1O; X1 = CCCCCOc1ccc(-c2cc(-c3ccc(C(=O)*)cc3)no2)cc1; Gln(3R-OH) = NC(=O)C[C@@H](O)[C@H](N)C(=O)O; Hyp = O=C(O)[C@@H]1C[C@@H](O)CN1

The clearance is a measure of how efficiently the substance is removed, as volume per time. `CCCCCOc1ccc(-c2cc(-c3ccc(C(=O)N[C@H]4C[C@@H](O)[C@@H](O)NC(=O)[C@@H]5[C@@H](O)[C@@H](C)CN5C(=O)[C@H]([C@H](O)CC(N)=O)NC(=O)[C@H]([C@H](O)[C@@H](O)c5ccc(O)c(OS(=O)(=O)O)c5)NC(=O)[C@@H]5C[C@@H](O)CN5C(=O)[C@H]([C@@H](C)O)NC4=O)cc3)no2)cc1` [micafungin] (X1-[Orn(4R-OH,5R-OH)]T[Hyp][hTyr(3S-OH,4S-OH,3'-OSO3H)][Gln(3R-OH)][Pro(3S-OH,4S-Me)]; lactam 1-C): under setting [1], the “Central volume, median” value was 16.34 L; the “kcp, median” value worked out at 0.26 h⁻¹; the “kpc, median” value stood at 0.14 h⁻¹. Moreover, under setting [2], the “Central volume, mean ± SD” value came to 16.34 ± 5.87 L; the “kcp (rate constant central to peripheral compartment), mean ± SD” value turned out to be 0.38 ± 0.37 h⁻¹; the “kpc (rate constant peripheral to central compartment), mean ± SD” value turned out to be 0.32 ± 0.31 h⁻¹. In addition, the clearance (plasma, iv, final two-compartment covariate population PK model, 100 or 150 mg once daily iv, read-out: Clearance, median (converted)) was 12.2 mL/min. For the same compound, the clearance (final two-compartment covariate population PK model (weight, age on CL), 100 or 150 mg once daily iv over 60 min, 242 total plasma concentrations, UHPLC-MS/MS, SD, read-out: Clearance, mean ± SD (converted)) is 13.3 mL/min.
